Data on one compound can be found in article PMC12017303 (Science Advances, 2025).

The EC50 is the concentration at which the effect is half-maximal.

The test system of this assay is α-HCoV 229E, β-HCoV OC43, MERS-CoV, SARS-CoV, SARS-CoV-2 variants (Delta, BA.2). The format is cell-based. To be noted: read-out: EC50 against all tested variants.

Take `C#CCn1c(C)c(-n2nnc3ccccc32)c(=O)n(-c2cncc3ccccc23)c1=O` [AVI-4516]: the EC50 is under 3000 nM.
